Reference: patent publication US4156737A, “P-Aminomethyl-benzene-sulfonamide derivatives, process for their preparation and applications thereof” (priority 1977, dated 1979)
Where a name gives a salt, the structure may show the parent alone.

Key:
[1] = system: treated animals; experiment: Chronic toxicity, laboratory, organ and histological examinations of the treated animals; assay type: in vivo, rats and rabbits
Description: In particular, no modification was found on examination of the weight increase, of the differential leucocyte count, of azotemia, of the transaminases and of urinary excretion.
Similarly, no modification was detected on anatomopathologic and physiological examinations conducted at the level of the main organs of the treated animals.

[2] = system: holes punctured through the ears of New Zealand rabbits; experiment: Action on cicatrization of holes punctured through the ears of rabbits; assay type: in vivo; details: 10% suspension applied locally around ear hole; versus reference animals or p-aminomethyl-benzene-sulfonamide
Description: To evaluate the healing action of the products of Examples 1 and 2 holes of equal diameter were punctured through the ears of New Zealand rabbits, after which the time required for cicatrization of said holes to occur was determined in untreated reference rabbits, in rabbits treated locally around the hole punctured through the ear with a 10% p-aminomethyl-benzene-sulfonamide suspension or with a suspension of identical concentration of the products of Examples 1 and 2.

[3] = system: germ strains (E. coli, Pseudomonas, Staphylococcus, Proteus, Serrata marcescens, Salmonella, Providencia); experiment: Anti-bacterial activity, agar dilutions on Mueller-Hinton medium, all germ strains; assay type: cell-based; details: versus p-aminomethyl-benzene-sulfonamide
Description: (§1) Various tests were used to determine the anti-bacterial activity of the products of Examples 1 and 2 with respect to p-aminomethyl-benzene-sulfonamide. Said tests were effected according to the agar dilutions on Mueller-Hinton medium. The inoculum is prepared by means of an automatic Multipoint Inoculation apparatus, with a 24 hrs broth culture diluted to 1/10.
(§2) The test materials are suspended in a Twin solution.
(§3) The following germ strains were used: E. coli 130; E. coli 3671; E. coli K 12; E. coli 334; Pseudomonas 66/5; Pseudomonas 630412; Pseudomonas Paffoni; Staphylococcus 209 P; Staphylococcus 153; Pseudomonas vulgaris 66/24; Proteus marg. 66/68; Proteus mirab. 564; Proteus mirab. 250; Serrata marcescens 67/14; Salmonella 29582; Salmonella gr. B; Providencia 70/13.

[4] = system: Staphylococcus; experiment: Anti-bacterial activity, agar dilutions on Mueller-Hinton medium, Staphylococcus; assay type: cell-based
Description: as §1, §2, §3

[5] = system: mice; experiment: LD50 in mice, intraperitoneal route (acute toxicity); assay type: in vivo; details: for toxicity: general statement introducing LD50
[6] = system: skin of rabbits; experiment: Topical application on the skin of rabbits (tolerance); assay type: in vivo
Description: (§4) High dosages of said products, suspended in suitable excipients, could be applied without any evidence of toxic symptons.
(§5) Application of said products was effected on the skin of animals both after depilation and after depilation and abrasion, so as to obtain continuous skin lesions.

[7] = system: skin of rats; experiment: Topical application on the skin of rats (tolerance); assay type: in vivo
Description: as §4, §5

[8] = system: Pseudomonas; experiment: Anti-bacterial activity, agar dilutions on Mueller-Hinton medium, Pseudomonas; assay type: cell-based
Description: as §1, §2, §3

[9] = system: E. coli; experiment: Anti-bacterial activity, agar dilutions on Mueller-Hinton medium, E. coli; assay type: cell-based
Description: as §1, §2, §3

[10] = Hygroscopicity and stability of the isolated powder; assay type: physicochemical; details: white powder
Description: The material is allowed to rest at a temperature of 5° C. for 24 hours, after which the resulting product is filtered off.

[11] = system: experimentally induced burns in male Sprague-Dawley rats; experiment: Protective action on experimentally induced burns; assay type: in vivo; details: for percent death rate of the burnt animals: after 48 hrs, versus reference animals or equivalent dosages of p-aminomethyl-benzene-sulfonamide; for protection compared with p-aminomethyl-benzene-sulfonamide: local; for protection compared with p-aminomethyl-benzene-sulfonamide / protective action against experimentally induced burns: 500 mg/kg; for protective action against experimentally induced burns: prior local administration
Description: The seriousness of the lesion thus induced is evaluated by means of the intravenous injection of Evans Blue, a vital dye.

[12] = LD50 in mice, intraperitoneal route (acute toxicity); assay type: in vivo; details: mouse, in vivo, ip; mice, intraperitoneal route

## p-aminomethyl-benzene-sulfonamide, zinc salt [Example 2]
[1]; chronic topical treatment, inflammatory or degenerative modification
  histological examination of skin samples: failed to disclose any modification of inflammatory or degenerative type
[2]
  tissue regeneration and cicatrization: much more rapid than in the reference animals or in the animals treated with p-aminomethyl-benzene-sulfonamide
[3]
  inhibiting action on the growth of the germ colonies: higher inhibiting action at lower concentrations than p-aminomethyl-benzene-sulfonamide
[4]
  susceptibility of species: particularly susceptible
[5]
  toxicity: very low toxicity
[5]; mice, intraperitoneal route
  LD50: 80 mg/kg
[6]; skin of rabbits, topical
  tolerance and apparent toxicity after topical application: equally well tolerated and free from any apparent toxicity
[7]; skin of rats, topical
  tolerance and apparent toxicity after topical application: equally well tolerated and free from any apparent toxicity
[8]
  susceptibility of species: particularly susceptible
[9]
  susceptibility of species: particularly susceptible
[10]
  hygroscopicity and stability: non-hygroscopic stable
[11]
  percent death rate of the burnt animals: lower
  protection compared with p-aminomethyl-benzene-sulfonamide: superior to that exerted by p-aminomethyl-benzene-sulfonamide
  protective action against experimentally induced burns: exerts a protective action against experimentally induced burns, by inhibiting or decreasing the intensity and the seriousness of the local lesions

## NCc1ccc(S(N)(=O)=O)cc1 [Example 1, p-aminomethyl-benzene-sulfonamide, silver salt]
[1]; in vivo
  histological examination of skin samples: failed to disclose any modification of inflammatory or degenerative type
[2]
  tissue regeneration and cicatrization: much more rapid than in the reference animals or in the animals treated with p-aminomethyl-benzene-sulfonamide
[3]
  inhibiting action on the growth of the germ colonies: higher inhibiting action at lower concentrations than p-aminomethyl-benzene-sulfonamide
[4]
  susceptibility of species: particularly susceptible
[12]
  LD50: 55 mg/kg
[5]
  toxicity: very low toxicity
[6]; rabbit, in vivo
  tolerance and apparent toxicity after topical application: equally well tolerated and free from any apparent toxicity
[7]; rat, in vivo
  tolerance and apparent toxicity after topical application: equally well tolerated and free from any apparent toxicity
[8]
  susceptibility of species: particularly susceptible
[9]
  susceptibility of species: particularly susceptible
[11]
  percent death rate of the burnt animals: lower
  protection compared with p-aminomethyl-benzene-sulfonamide: superior to that exerted by p-aminomethyl-benzene-sulfonamide
  protective action against experimentally induced burns: exerts a protective action against experimentally induced burns, by inhibiting or decreasing the intensity and the seriousness of the local lesions
